# Measurements: US12486267B2, “Imidazo[1,2-A]pyridine and [1,2,4]triazolo[1,5-A]pyridine derivatives as TLR9 inhibitors for the treatment of fibrosis” (BRISTOL-MYERS SQUIBB COMPANY, priority 2020, dated 2025)
# Assays:
# Type in all cases: cell-based
# [1] = molecular target: T1, human TLR9 (Homo sapiens, UniProt Q9NR96); experiment: TLR9 inhibition reporter assay (HEK-Blue cells, SEAP reporter); settings: HEK-Blue cells overexpressing human TLR9; stimulated with ODN2006 5 nM; 22 hour incubation; SEAP readout
# T1 sequence (Q9NR96 26-1032): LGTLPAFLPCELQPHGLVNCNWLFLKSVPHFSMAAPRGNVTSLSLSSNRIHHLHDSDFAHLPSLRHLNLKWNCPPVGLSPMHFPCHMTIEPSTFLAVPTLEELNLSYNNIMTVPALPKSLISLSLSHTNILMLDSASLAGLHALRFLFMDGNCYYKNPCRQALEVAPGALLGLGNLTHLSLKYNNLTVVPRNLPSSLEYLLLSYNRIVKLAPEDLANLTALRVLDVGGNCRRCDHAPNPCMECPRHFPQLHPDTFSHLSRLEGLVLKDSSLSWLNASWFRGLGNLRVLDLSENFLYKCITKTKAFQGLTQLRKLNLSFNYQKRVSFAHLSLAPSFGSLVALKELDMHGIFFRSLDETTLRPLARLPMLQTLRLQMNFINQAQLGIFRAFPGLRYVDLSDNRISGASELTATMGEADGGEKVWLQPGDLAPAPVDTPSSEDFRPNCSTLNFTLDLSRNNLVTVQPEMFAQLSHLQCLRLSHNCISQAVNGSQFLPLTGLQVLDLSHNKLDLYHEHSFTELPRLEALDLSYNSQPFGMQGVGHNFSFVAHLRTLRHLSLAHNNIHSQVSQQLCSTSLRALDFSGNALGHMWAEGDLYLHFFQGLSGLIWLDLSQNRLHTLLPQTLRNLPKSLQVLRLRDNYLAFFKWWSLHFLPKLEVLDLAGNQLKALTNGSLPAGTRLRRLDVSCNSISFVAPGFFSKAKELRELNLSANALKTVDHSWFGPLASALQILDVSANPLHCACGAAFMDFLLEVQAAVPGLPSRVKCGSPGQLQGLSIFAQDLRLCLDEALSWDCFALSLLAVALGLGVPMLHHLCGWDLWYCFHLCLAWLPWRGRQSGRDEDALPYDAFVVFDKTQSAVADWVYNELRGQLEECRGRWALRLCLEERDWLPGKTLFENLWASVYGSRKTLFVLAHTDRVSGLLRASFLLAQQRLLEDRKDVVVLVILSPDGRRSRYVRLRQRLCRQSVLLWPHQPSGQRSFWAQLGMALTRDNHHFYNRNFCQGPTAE
# How it was run: (§1)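 HEK-Blue cells with NF-κB/AP-1-driven SEAP pre-treated 30 min with compound (0.05 nM–50 μM), then stimulated with gardiquimod 7.5 μM (TLR7), R848 15.9 μM (TLR8) or ODN2006 5 nM (TLR9). SEAP detected after 22 h at 37 °C; percent inhibition relative to agonist-plus-DMSO and known-inhibitor wells.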
# [2] = molecular target: T2, human TLR7 (Homo sapiens, UniProt Q9NYK1); experiment: TLR7 inhibition reporter assay (HEK-Blue cells, SEAP reporter); settings: HEK-Blue cells overexpressing human TLR7; stimulated with gardiquimod 7.5 μM; 22 hour incubation; SEAP readout
# T2 sequence (Q9NYK1 27-1049): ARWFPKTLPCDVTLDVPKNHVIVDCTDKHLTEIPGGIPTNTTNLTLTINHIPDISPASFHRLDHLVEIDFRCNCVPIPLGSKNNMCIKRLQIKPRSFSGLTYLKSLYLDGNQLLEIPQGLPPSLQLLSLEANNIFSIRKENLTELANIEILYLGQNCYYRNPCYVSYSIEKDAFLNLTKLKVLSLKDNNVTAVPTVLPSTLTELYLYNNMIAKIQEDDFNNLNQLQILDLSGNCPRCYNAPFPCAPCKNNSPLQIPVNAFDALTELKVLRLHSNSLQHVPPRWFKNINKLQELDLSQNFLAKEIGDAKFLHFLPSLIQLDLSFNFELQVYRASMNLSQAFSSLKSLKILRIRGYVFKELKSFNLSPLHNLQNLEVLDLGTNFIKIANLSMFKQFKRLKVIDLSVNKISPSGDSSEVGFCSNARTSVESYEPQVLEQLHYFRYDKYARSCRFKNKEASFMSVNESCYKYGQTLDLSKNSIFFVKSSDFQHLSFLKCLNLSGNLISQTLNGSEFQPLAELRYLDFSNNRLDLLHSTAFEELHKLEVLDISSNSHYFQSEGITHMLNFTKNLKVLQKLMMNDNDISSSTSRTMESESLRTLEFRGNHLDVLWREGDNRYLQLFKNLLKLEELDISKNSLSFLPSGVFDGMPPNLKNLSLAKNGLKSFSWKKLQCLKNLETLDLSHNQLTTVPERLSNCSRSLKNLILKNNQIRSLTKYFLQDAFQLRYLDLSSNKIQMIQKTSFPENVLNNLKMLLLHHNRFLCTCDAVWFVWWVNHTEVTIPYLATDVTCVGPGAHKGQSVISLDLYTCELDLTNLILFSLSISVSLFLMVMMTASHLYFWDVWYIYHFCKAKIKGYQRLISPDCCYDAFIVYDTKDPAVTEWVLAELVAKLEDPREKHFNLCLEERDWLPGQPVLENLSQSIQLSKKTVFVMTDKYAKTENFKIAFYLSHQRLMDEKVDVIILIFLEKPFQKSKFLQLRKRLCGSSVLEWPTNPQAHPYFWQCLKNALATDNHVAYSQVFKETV
# How it was run: as §1
# [3] = molecular target: T3, human TLR8 (Homo sapiens, UniProt Q9NR97); experiment: TLR8 inhibition reporter assay (HEK-Blue cells, SEAP reporter); settings: HEK-Blue cells overexpressing human TLR8; stimulated with R848 15.9 μM; 22 hour incubation; SEAP readout
# T3 sequence (Q9NR97 27-1041): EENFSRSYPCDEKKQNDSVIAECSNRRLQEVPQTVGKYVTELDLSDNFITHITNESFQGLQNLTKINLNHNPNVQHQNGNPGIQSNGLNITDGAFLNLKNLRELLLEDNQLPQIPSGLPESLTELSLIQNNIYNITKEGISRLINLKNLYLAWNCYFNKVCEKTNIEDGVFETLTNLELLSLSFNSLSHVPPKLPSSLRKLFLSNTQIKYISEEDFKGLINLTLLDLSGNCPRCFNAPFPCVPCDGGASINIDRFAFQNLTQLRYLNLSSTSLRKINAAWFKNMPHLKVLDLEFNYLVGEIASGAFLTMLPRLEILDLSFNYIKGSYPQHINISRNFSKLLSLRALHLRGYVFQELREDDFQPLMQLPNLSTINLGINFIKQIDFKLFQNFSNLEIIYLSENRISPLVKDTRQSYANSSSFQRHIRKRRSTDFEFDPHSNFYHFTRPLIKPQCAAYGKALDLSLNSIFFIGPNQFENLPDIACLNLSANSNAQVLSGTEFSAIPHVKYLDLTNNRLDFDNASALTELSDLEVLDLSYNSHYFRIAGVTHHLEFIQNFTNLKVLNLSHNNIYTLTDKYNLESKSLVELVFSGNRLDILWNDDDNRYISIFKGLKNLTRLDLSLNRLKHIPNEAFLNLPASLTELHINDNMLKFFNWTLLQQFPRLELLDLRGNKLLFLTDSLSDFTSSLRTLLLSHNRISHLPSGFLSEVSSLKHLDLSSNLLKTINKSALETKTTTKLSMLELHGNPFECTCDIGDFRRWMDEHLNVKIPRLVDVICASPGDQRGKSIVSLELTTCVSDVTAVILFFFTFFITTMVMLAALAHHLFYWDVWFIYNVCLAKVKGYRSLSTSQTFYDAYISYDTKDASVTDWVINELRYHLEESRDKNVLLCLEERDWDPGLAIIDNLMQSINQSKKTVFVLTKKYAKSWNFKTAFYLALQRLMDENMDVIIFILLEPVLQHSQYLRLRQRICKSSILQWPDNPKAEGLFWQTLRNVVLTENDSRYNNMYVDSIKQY
# How it was run: as §1
IC50 [1] [nM],IC50 [2] [nM],IC50 [3] [nM],Compound
242,31000,> 50000,"COc1ccc(-c2cn3cc(C4CCN(C5CC6CCC(C5)N6C(C)C)CC4)cc(C)c3n2)cc1OC (single isomer, unassigned) [Example 23, 2-(3,4-dimethoxyphenyl)-6-(1-(8-isopropyl-8-azabicyclo[3.2.1]octan-3-yl)piperidin-4-yl)-8-methylimidazo[1,2-a]pyridine]"
38,1600,> 50000,"COc1ccc(-c2cn3c(n2)CCC(C2CCN(C4CCN(CC5CC5)CC4)CC2)C3)cc1OC (racemic) [Example 55, 6-(1′-(cyclopropylmethyl)-[1,4′-bipiperidin]-4-yl)-2-(3,4-dimethoxyphenyl)-5,6,7,8-tetrahydroimidazo[1,2-a]pyridine]"
